Data as given in patent US8389247B2, “Physiogenomic method for predicting diabetes and metabolic syndromes induced by psychotropic drugs” (priority 2006, dated 2013).

What was measured:
[1] = Physiogenomic SNP association screen: single-SNP coefficients for metabolic syndrome outcomes in patients on psychotropic drugs
Source text: Various SNPs associated with, for example, the observation of various parameters of metabolic syndromes in patients on psychotropic drugs were screened. The endpoints analyzed were the blood levels of LDL, HDL, and glucose; blood pressure; body mass index; waist circumference; and metabolic syndromes index. The physiogenomic model was developed using the following procedure: 1) Establish a covariate model using only the demographic and clinical variables, 2) Screen for associated genetic markers by testing each SNP against the unexplained residual of the covariate model, and 3) Establish a revised model incorporating the significant associations from the SNP screen. All models are simple linear regression models, but other well-known statistical methods are contemplated to be useful.
In the SNP screen (step 2), the p-values for each SNP were obtained by adding the SNP to the covariate model and comparing the resulting model improvement with up to 10,000 simulated model improvements using the same data set, but with the genotype data randomly permuted to remove any true association. This method produces a p-value that is a direct, unbiased, and model-free estimate of the probability of finding a model as good as the one tested when the null hypothesis of no association is true. All SNPs with a screening p-value of better than 0.003 were selected to be included in the physiogenomic model (step 3).
Data Analysis. Covariates were analyzed using multiple linear regression and the stepwise procedure. An extended linear model was constructed including the significant covariate and the SNP genotype. SNP genotype was coded quantitatively as a numerical variable indicating the number of minor alleles: 0 for major homozygotes, 1 for heterozygotes, and 2 for minor homozygotes. The F-statistic p-value for the SNP variable was used to evaluate the significance of association. The validity of the p-values were tested by performance of an independent calculation of the p-values using permutation testing. To account for the multiple testing of multiple SNPs, adjusted p-values were calculated using Benjamini and Hochbergs false discovery rate (FDR) procedure [Reinere A, Yekutiele D, Benjamini Y: Identifying differentially expressed genes using false discovery rate controlling procedures. Bioinformatics 19:368-375 (2003); Benjamini Y, Hochberg Y: Controlling the false discovery rate: a practical and powerful approach to multiple testing. Journal of the Royal Statistical Society, Series B 57:289-300 (1995); Benjamini Y, Hochberg Y: On the adaptive control of the false discovery rate in multiple testing with independent statistics. Journal of Educational and Behavioral Statistics 25:60-83 (2000)]. In addition, the power for detecting an association based on the Bonferroni multiple comparison adjustment was evaluated. For each SNP, the effect size in standard deviations that was necessary for detection of an association at a power of 80% (20% false negative rate) was calculated using the formula: […]

[2] = Outcome variables of patients on each psychotropic drug broken down by demographic factors (Covariates tables); assay type: in vivo, human
[3] = Source text: b. Model Building. […] A model was developed for the purpose of predicting a given response (Y) to psychotropic drugs. A linear model for subjects in a group of patients subjected to psychotropic drugs was used in which the response of interest can be expressed as follows:
[formula] where Mi are the dummy marker variables indicating the presence of specified genotypes and Dj are demographic and clinical covariates. The model parameters that are to be estimated from the data are R0, αi and βj. […] S-plus provides very good support for algorithms that provide these estimates for the initial linear regression models, as well other generalized linear models that may be used when the error distribution is not normal. For continuous variables, generalized additive models, including cubic splines in order to appropriately assess the form for the dose-response relationship may also be considered [Hastie T, Tibshirani R. Generalized additive models. Stat. Sci. 1: 297-318 (1986); Durrleman S, Simon R. Flexible regression models with cubic splines. Statistics in Medicine 8:551-561 (1989)].
In addition to optimizing the parameters, model refinement is performed. The first phase of the regression analysis will consist of considering a set of simplified models by eliminating each variable in turn and re-optimizing the likelihood function. The ratio between the two maximum likelihoods of the original vs. the simplified model then provides a significance measure for the contribution of each variable to the model.
Each physiotype in this particular embodiment consists of a selection of markers, and intercept value (C), and a coefficient (ci) for each marker. […] The predicted LDL response for a given individual is then given by the formula:
[formula] where C is the intercept, the ci are the coefficients and the gi are the genotypes, coded 0 for the wild type allele homozygote, 1 for the heterozygote, and 2 for the variant allele homozygote.

[4] = cited from earlier work

SMILES: O=C1Cc2cc(CCN3CCN(c4nsc5ccccc45)CC3)c(Cl)cc2N1 [Ziprasidone, ziprasidone]
- Coeff. LDL Cholesterol ([1]; SNP rs40318, gene PIK3R1, allele TC, p 4.80E−02): 22.72
- Coeff. LDL Cholesterol ([1]; SNP rs1322783, gene DISC1, allele TC, p 1.26E−02): −27.8566
- Coeff. LDL Cholesterol ([1]; SNP rs1614845, gene HRH3, allele TC, p 4.20E−02): −21.1697
- Coeff. LDL Cholesterol ([1]; SNP rs1951795, gene HIF1A, allele AC, p 2.81E−02): 17.21
- Coeff. LDL Cholesterol ([1]; SNP rs2067477, gene CHRM1, allele AC, p 4.47E−02): −23.7833
- Coeff. LDL Cholesterol ([1]; SNP rs2228139, gene IL1R1, allele GC, p 1.74E−02): −42.4134
- Coeff. LDL Cholesterol ([1]; SNP rs2269935, gene PFKM, allele AC, p 1.38E−02): −29.0481
- Coeff. LDL Cholesterol ([1]; SNP rs2301108, gene HIF1A, allele AG, p 4.60E−03): 27.41
- Coeff. LDL Cholesterol ([1]; SNP rs2856929, gene PKM2, allele AG, p 2.55E−02): −21.0303
- Coeff. HDL Cholesterol ([1]; SNP rs3757868, gene ACHE, allele AG, p 2.11E−02): 9.221
- Coeff. Ratio of Total Cholesterol to HDL Cholesterol ([1]; SNP rs3757868, gene ACHE, allele AG, p 2.47E−02): −0.8869
- Coeff. LDL Cholesterol ([1]; SNP rs3816873, gene MTP, allele TC, p 2.73E−02): −19.1531
- Coeff. LDL Cholesterol ([1]; SNP rs6700734, gene TNFSF6, allele AG, p 1.15E−02): 21.53
- Coeff. LDL Cholesterol ([1]; SNP rs6967107, gene WBSCR14, allele AC, p 5.00E−02): −28.3763
- Coeff. LDL Cholesterol ([1]; SNP rs6976017, gene CYP3A5, allele AG, p 4.34E−03): −45.408
- Coeff. LDL Cholesterol ([1]; SNP rs7816340, gene ADRA1A, allele TC, p 4.22E−02): 24.97
- Coeff. LDL Cholesterol ([1]; SNP rs10082776, gene RARG, allele AG, p 1.92E−02): −24.15
- LDL ([2]; Age 20-30): 79.20
- LDL ([2]; Age 30-40): 98.42
- LDL ([2]; Age 40-50): 75.18
- LDL ([2]; Age 50-60): 135.00
- LDL ([2]; Age 60-70): 154.00
- LDL ([2]; Age <20): 89.50
- LDL ([2]; All): 88.32
- LDL ([2]; Gender female): 98.11
- LDL ([2]; Gender male): 79.05
- LDL ([2]; Heritage AA): 63.17
- LDL ([2]; Heritage Cauc.): 93.19
- Log (TG) ([2]; human, in vivo): 4.968
- LDL ([2]; patients on the named drug): 88.32

SMILES: O=C1CCc2ccc(OCCCCN3CCN(c4cccc(Cl)c4Cl)CC3)cc2N1 [Arapiprazole, arapiprazole]
- Coeff. LDL Cholesterol ([1]; SNP rs264 LPL allele AG p 3.00E−03): −26.5842
- Coeff. LDL Cholesterol ([1]; SNP rs7412 APOE allele TC p 1.42E−02): −26.3527
- Coeff. LDL Cholesterol ([1]; SNP rs140700 SLC6A4 allele AG p 1.76E−02): 34.06
- Coeff. LDL Cholesterol ([1]; SNP rs231460 PYY allele TC p 7.02E−03): −22.8702
- Coeff. LDL Cholesterol ([1]; SNP rs701492 GAD1 allele TC p 1.25E−04): −41.2222
- Coeff. LDL Cholesterol ([1]; SNP rs1057910 CYP2C9 allele AC p 9.03E−04): 25.75
- Coeff. LDL Cholesterol ([1]; SNP rs1176744 HTR3B allele TG p 2.77E−02): −14.3889
- Coeff. LDL Cholesterol ([1]; SNP rs1805002 CCKBR allele AG p 3.93E−02): −32.875
- Coeff. LDL Cholesterol ([1]; SNP rs1871143 GYS2 allele TG p 4.09E−02): −14.1588
- Coeff. LDL Cholesterol ([1]; SNP rs2070937 HP allele AG p 3.68E−02): 16.59
- Coeff. LDL Cholesterol ([1]; SNP rs2192752 IL1R1 allele AC p 3.35E−02): 19.88
- Coeff. LDL Cholesterol ([1]; SNP rs2227852 DRD5 allele AG p 1.36E−02): −28.1852
- Coeff. LDL Cholesterol ([1]; SNP rs2229416 ACACA allele AG p 1.41E−02): −29.2143
- Coeff. LDL Cholesterol ([1]; SNP rs2306179 GYS2 allele AG p 2.72E−02): −15.1786
- Coeff. LDL Cholesterol ([1]; SNP rs3760396 CCL2 allele GC p 4.10E−02): −15.8942
- Coeff. LDL Cholesterol ([1]; SNP rs3762611 GABRA4 allele AG p 1.49E−02): −18.7032
- Coeff. LDL Cholesterol ([1]; SNP rs3822222 CCKAR allele TC p 8.57E−03): 24.98
- Coeff. LDL Cholesterol ([1]; SNP rs4795180 ACACA allele TG p 1.41E−02): −29.2143
- Coeff. LDL Cholesterol ([1]; SNP rs5030390 ICAM1 allele AG p 1.30E−02): −27.8333
- Coeff. LDL Cholesterol ([1]; SNP rs7816340 ADRA1A allele TC p 4.36E−02): −25.5911
- Coeff. LDL Cholesterol ([1]; SNP rs9904270 RARA allele TC p 2.39E−03): −37.1182
- Coeff. LDL Cholesterol ([1]; SNP rs10509676 CYP2C19 allele TA p 1.50E−02): −24.25
- LDL ([2]; Age 20-30, N 8): 90.5
- LDL ([2]; Age 30-40, N 16): 97.19
- LDL ([2]; Age 40-50, N 8): 94.25
- LDL ([2]; Age 50-60, N 4): 83
- LDL ([2]; All, N 36): 93.47
- LDL ([2]; Heritage African Am, N 3): 104
- LDL ([2]; Heritage Caucasian, N 33): 92.52
- LDL ([2]; female, N 10): 87
- BM ([2]; human, in vivo): 86.58
- Waist ([2]; human, in vivo): 101.34
- dBP ([2]; human, in vivo): 75.86
- sBP ([2]; human, in vivo): 122.17
- LDL ([2]; male, N 26): 95.96
- LDL ([2]; patients on the named drug): 93.47
- Intercept (C), Blood Glucose Physiotype [3]: Intercept (C) = 0.3665
- Intercept (C), Body Mass Physiotype [3]: Intercept (C) = 0.1845
- Intercept (C), Diastolic Blood Pressure Physiotype [3]: Intercept (C) = −0.05506
- Intercept (C), HDL Cholesterol Physiotype [3]: Intercept (C) = −0.3706
- Intercept (C), LDL Cholesterol Physiotype [3]: Intercept (C) = 0.2441
- Intercept (C), Log (TG) Physiotype [3]: Intercept (C) = 0.9167
- Intercept (C), Systolic Blood Pressure Physiotype [3]: Intercept (C) = −0.1862
- Intercept (C), Waist circumference Physiotype [3]: Intercept (C) = −0.888

SMILES: CN1CCN(C2=Nc3cc(Cl)ccc3Nc3ccccc32)CC1 [clozapine]
- treated patients with induced weight gain, diabetes and other metabolic derangements [4]: 50%
